Results: US11590116B2 (THERAVANCE BIOPHARMA R&D IP, LLC, priority 2019, dated 2023)

Experiments:
[1] = target: T1, recombinant human ALK5 (TGF-βR1) protein (Homo sapiens, UniProt P36897); experiment: Biochemical ALK5 (TGF-βR1) assay to measure pKi (LANCE Ultra ULight kinase assay); conditions: apparent pKi from pIC50 by Cheng-Prusoff, read-out: ALK5 pKi (converted)
T1 construct: purchased Life Technologies PR9075A
T1 sequence (P36897 34-503): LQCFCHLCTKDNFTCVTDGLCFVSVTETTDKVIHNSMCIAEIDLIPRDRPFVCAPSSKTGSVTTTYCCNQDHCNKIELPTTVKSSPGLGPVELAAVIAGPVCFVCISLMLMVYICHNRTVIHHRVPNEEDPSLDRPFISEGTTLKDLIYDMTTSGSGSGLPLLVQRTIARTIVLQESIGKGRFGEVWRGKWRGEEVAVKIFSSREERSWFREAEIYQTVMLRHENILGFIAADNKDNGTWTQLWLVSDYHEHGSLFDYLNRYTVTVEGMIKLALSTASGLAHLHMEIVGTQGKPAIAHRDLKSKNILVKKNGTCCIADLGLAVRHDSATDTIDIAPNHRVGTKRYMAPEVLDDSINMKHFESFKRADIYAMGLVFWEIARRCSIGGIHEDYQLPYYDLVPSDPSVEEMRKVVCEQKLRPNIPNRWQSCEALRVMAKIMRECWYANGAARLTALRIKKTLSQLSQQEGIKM
In short: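 Compounds (10 μM to 25 pM) preincubated 60 minutes at room temperature with enzyme, then reaction run 60 minutes at 37° C with ATP added as 125 μM (5× final). Stopped with EDTA plus Eu-anti-phospho-Topoisomerase 2-alpha (Thr1342) antibody, TR-FRET read at 665 nm; pIC50 converted to pKi via Cheng-Prusoff.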

[2] = tested on: TGF-β-stimulated SMAD3 phosphorylation in BEAS-2B cells; experiment: Cellular ALK5 potency assay, inhibition of TGF-β stimulated pSMAD3 formation in BEAS-2B cells; format: cell-based; conditions: Homo sapiens; inhibition of TGF-β stimulated pSMAD3 formation, BEAS-2B cells; read-out: BEAS2B pIC50 (converted)
In short: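 Potency is reported as pIC50, derived from concentration-dependent reduction of pSMAD3 AlphaLISA signal against TGF-β-stimulated cells without compound. BEAS-2B cells received compound for 1 h before a 30-min stimulation with 10 ng/mL TGF-β.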

Row | Compound | Ki [1] [nM] | IC50 [2] [nM]
1 | Cc1cccc(-c2[nH]cnc2-c2ccc3ncc(C(=O)O[C@@H]4CCN(C)C4)cc3c2)n1 [Compound 758, [(3R)-1-methylpyrrolidin-3-yl] 6-[5-(6-methyl-2-pyridyl)-1H-imidazol-4-yl]quinoline-3-carboxylate] | 0.398 to 3.16 | 25.1 to 158
2 | Cc1cccc(-c2[nH]ncc2-c2ccc3ncc(C(=O)OCCN4CCC[C@@H](N)C4)cc3c2)n1 [Compound 1241, 2-[(3R)-3-amino-1-piperidyl]ethyl 6-[5-(6-methyl-2-pyridyl)-1H-pyrazol-4-yl]quinoline-3-carboxylate] | 0.0398 to 0.316 | 25.1 to 158
3 | Cc1nc(-c2[nH]cnc2-c2ccc3ncc(NCCN4CCCC4(C)C)cc3n2)ccc1F [Compound 603, N-[2-(2,2-dimethylpyrrolidin-1-yl)ethyl]-6-[5-(5-fluoro-6-methyl-2-pyridyl)-1H-imidazol-4-yl]-1,5-naphthyridin-3-amine] | < 0.0316 | 25.1 to 158
4 | Cc1cccc(-c2[nH]cnc2-c2ccc3ncc(-c4cnc5c(c4)CNCC5)cc3c2)n1 [Compound 77, 3-[6-[5-(6-methyl-2-pyridyl)-1H-imidazol-4-yl]-3-quinolyl]-5,6,7,8-tetrahydro-1,6-naphthyridine] | 0.0398 to 0.316 | 25.1 to 158
5 | Cc1cccc(-c2[nH]cnc2-c2ccc3ncc(C4=CCC(N(C)C)CC4)cc3c2)n1 (stereo not shown) [Compound 629, N,N-dimethyl-4-(6-(5-(6-methylpyridin-2-yl)-1H-imidazol-4-yl)quinolin-3-yl)cyclohex-3-en-1-amine] | < 0.0316 | 25.1 to 158
6 | Cc1cccc(-c2nn3c(c2-c2ccc4ncc(-c5cn[nH]c5)cc4c2)CNCC3)n1 [Compound 402, 6-[2-(6-methyl-2-pyridyl)-4,5,6,7-tetrahydropyrazolo[1,5-a]pyrazin-3-yl]-3-(1H-pyrazol-4-yl)quinoline] | 0.0398 to 0.316 | 25.1 to 158
7 | Cc1nc(-c2n[nH]cc2-c2ccc3ncc(-c4[nH]nc5c4CCN5)cc3n2)ccc1F [Compound 515, 2-[3-(5-fluoro-6-methyl-2-pyridyl)-1H-pyrazol-4-yl]-7-(2,4,5,6-tetrahydropyrrolo[2,3-c]pyrazol-3-yl)-1,5-naphthyridine] | < 0.0316 | 25.1 to 158
8 | Cc1cccc(-c2nnn(Cc3ccccc3)c2-c2ccc3ncc(-c4cnn(C5CCCNC5)c4)cc3c2)n1 (stereo not shown) [Compound 27, 6-[3-benzyl-5-(6-methyl-2-pyridyl)triazol-4-yl]-3-[1-(3-piperidyl)pyrazol-4-yl]quinoline] | 0.0398 to 0.316 | 25.1 to 158
9 | Cc1cccc(-c2[nH]cnc2-c2ccc3ncc(N4CCN[C@H](C(=O)O)C4)cc3c2)n1 [Compound 682, (2S)-4-[6-[5-(6-methyl-2-pyridyl)-1H-imidazol-4-yl]-3-quinolyl]piperazine-2-carboxylic acid] | 0.398 to 3.16 | 200 to 1260
10 | Cc1cccc(-c2[nH]ncc2-c2ccc3ncc(C(=O)O)cc3n2)n1 [Compound 553, 6-[5-(6-methyl-2-pyridyl)-1H-pyrazol-4-yl]-1,5-naphthyridine-3-carboxylic acid] | 3.98 to 31.6 | 1580 to 10000
11 | Cc1cccc(-c2[nH]cnc2-c2ccc3ncc(NCCN4CCCC4(C)C)cc3c2)n1 [Compound 56, N-[2-(2,2-dimethylpyrrolidin-1-yl)ethyl]-6-[5-(6-methyl-2-pyridyl)-1H-imidazol-4-yl]quinolin-3-amine] | < 0.0316 | 25.1 to 158
12 | Cc1nc(-c2n[nH]cc2-c2ccc3ncc(-c4ncc5n4CCNC5)cc3n2)ccc1F [Compound 39, 2-[3-(5-fluoro-6-methyl-2-pyridyl)-1H-pyrazol-4-yl]-7-(5,6,7,8-tetrahydroimidazo[1,5-a]pyrazin-3-yl)-1,5-naphthyridine] | 0.398 to 3.16 | 200 to 1260
13 | Cc1cccc(-c2[nH]cnc2-c2ccc3ncc(-c4ncc(C(=O)O[C@H]5CCNC5)cn4)cc3c2)n1 [Compound 1158, [(3S)-pyrrolidin-3-yl] 2-[6-[5-(6-methyl-2-pyridyl)-1H-imidazol-4-yl]-3-quinolyl]pyrimidine-5-carboxylate] | 0.0398 to 0.316 | 25.1 to 158

Continued, in another order:

Row | Ki [1] [nM] | Compound | IC50 [2] [nM]
14 | 0.0398 to 0.316 | Cc1cccc(-c2n[nH]cc2-c2ccc3ncc(-c4nc5n(n4)CCNC5)cc3n2)n1 [Compound 67, 2-[3-(6-methyl-2-pyridyl)-1H-pyrazol-4-yl]-7-(5,6,7,8-tetrahydro-[1,2,4]triazolo[1,5-a]pyrazin-2-yl)-1,5-naphthyridine] | 25.1 to 158
15 | 0.0398 to 0.316 | Cc1cccc(-c2n[nH]cc2-c2ccc3ncc(N4CC(CN)C4)cc3n2)n1 [Compound 279, [1-[6-[3-(6-methyl-2-pyridyl)-1H-pyrazol-4-yl]-1,5-naphthyridin-3-yl]azetidin-3-yl]methanamine] | 25.1 to 158
16 | 0.0398 to 0.316 | Cc1nc(-c2n[nH]cc2-c2ccc3ncc(N4CCNCC4)cc3n2)ccc1F [Compound 661, 2-[3-(5-fluoro-6-methyl-2-pyridyl)-1H-pyrazol-4-yl]-7-piperazin-1-yl-1,5-naphthyridine] | < 20
17 | < 0.0316 | Cc1cccc(-c2n[nH]cc2-c2ccc3ncc(-c4ccn(C)n4)cc3n2)n1 [Compound 692, 7-(1-methylpyrazol-3-yl)-2-[3-(6-methyl-2-pyridyl)-1H-pyrazol-4-yl]-1,5-naphthyridine] | < 20
18 | 0.0398 to 0.316 | Cc1cccc(-c2n[nH]cc2-c2ccc3nccc(CNCCCN4CCOCC4)c3n2)n1 [Compound 815, N-[[6-[3-(6-methyl-2-pyridyl)-1H-pyrazol-4-yl]-1,5-naphthyridin-4-yl]methyl]-3-morpholino-propan-1-amine] | 25.1 to 158
19 | 0.0398 to 0.316 | Cc1cccc(-c2[nH]ncc2-c2ccc3ncc(C(=O)OCCCCN4CCCC4)cc3n2)n1 [Compound 146, 4-pyrrolidin-1-ylbutyl 6-[5-(6-methyl-2-pyridyl)-1H-pyrazol-4-yl]-1,5-naphthyridine-3-carboxylate] | 25.1 to 158
20 | 0.0398 to 0.316 | Cc1cccc(-c2n[nH]cc2-c2ccc3ncc(N4CCCN(CC(C)C)CC4)cc3n2)n1 [Compound 320, 7-(4-isobutyl-1,4-diazepan-1-yl)-2-[3-(6-methyl-2-pyridyl)-1H-pyrazol-4-yl]-1,5-naphthyridine] | 200 to 1260
21 | 0.0398 to 0.316 | COc1[nH]nc(-c2cccc(C)n2)c1-c1ccc2ncc(N)cc2n1 [Compound 600, 6-(5-methoxy-3-(6-methylpyridin-2-yl)-1H-pyrazol-4-yl)-1,5-naphthyridin-3-amine] | 25.1 to 158
22 | 0.0398 to 0.316 | CNCCN1CCCN(c2cnc3ccc(-c4c[nH]nc4-c4cccc(C)n4)nc3c2)CC1 [Compound 311, N-methyl-2-[4-[6-[3-(6-methyl-2-pyridyl)-1H-pyrazol-4-yl]-1,5-naphthyridin-3-yl]-1,4-diazepan-1-yl]ethanamine] | 200 to 1260
23 | 0.0398 to 0.316 | Cc1cccc(-c2n[nH]cc2-c2ccc3ncc(N4CCCN(Cc5ccccc5)CC4)cc3n2)n1 [Compound 65, 7-(4-benzyl-1,4-diazepan-1-yl)-2-[3-(6-methyl-2-pyridyl)-1H-pyrazol-4-yl]-1,5-naphthyridine] | 200 to 1260
24 | < 0.0316 | CNCCn1cc(-c2cnc3ccc(-c4c[nH]nc4-c4cccc(C)n4)cc3c2)cn1 [Compound 589, N-methyl-2-[4-[6-[3-(6-methyl-2-pyridyl)-1H-pyrazol-4-yl]-3-quinolyl]pyrazol-1-yl]ethanamine] | < 20
25 | 0.398 to 3.16 | Cc1cccc(-c2n[nH]cc2-c2ccc3ncc(CCC(=O)N4CCOCC4)cc3n2)n1 [Compound 385, 3-[6-[3-(6-methyl-2-pyridyl)-1H-pyrazol-4-yl]-1,5-naphthyridin-3-yl]-1-morpholino-propan-1-one] | 25.1 to 158
26 | < 0.0316 | CNCCn1cc(-c2cnc3ccc(-c4c[nH]nc4-c4cccc(C(F)(F)F)n4)nc3c2)cn1 [Compound 237, N-methyl-2-(4-(6-(3-(6-(trifluoromethyl)pyridin-2-yl)-1H-pyrazol-4-yl)-1,5-naphthyridin-3-yl)-1H-pyrazol-1-yl)ethan-1-amine] | 25.1 to 158
27 | 0.0398 to 0.316 | CCOC(=O)CCc1cnc2ccc(-c3c[nH]nc3-c3cccc(C)n3)nc2c1 [Compound 499, ethyl 3-[6-[3-(6-methyl-2-pyridyl)-1H-pyrazol-4-yl]-1,5-naphthyridin-3-yl]propanoate] | 25.1 to 158
28 | 0.0398 to 0.316 | Cc1cccc(-c2n[nH]cc2-c2ccc3ncc(C4=CCNC4)cc3n2)n1 [Compound 588, 7-(2,5-dihydro-1H-pyrrol-3-yl)-2-[3-(6-methyl-2-pyridyl)-1H-pyrazol-4-yl]-1,5-naphthyridine] | < 20
29 | 0.398 to 3.16 | CNCc1ccnc2ccc(-c3c[nH]nc3-c3cccc(C)n3)nc12 [Compound 829, N-methyl-1-[6-[3-(6-methyl-2-pyridyl)-1H-pyrazol-4-yl]-1,5-naphthyridin-4-yl]methanamine] | 25.1 to 158
